Measured values: publication PMC9901937, “Selective androgen receptor degrader (SARD) to overcome antiandrogen resistance in castration-resistant prostate cancer” (eLife, 2023)

Molecular target: T1, androgen receptor (AR) (Homo sapiens, UniProt P10275)
T1 construct: AR from LNCaP cytosol (LBD site)
T1 sequence (P10275 1-920): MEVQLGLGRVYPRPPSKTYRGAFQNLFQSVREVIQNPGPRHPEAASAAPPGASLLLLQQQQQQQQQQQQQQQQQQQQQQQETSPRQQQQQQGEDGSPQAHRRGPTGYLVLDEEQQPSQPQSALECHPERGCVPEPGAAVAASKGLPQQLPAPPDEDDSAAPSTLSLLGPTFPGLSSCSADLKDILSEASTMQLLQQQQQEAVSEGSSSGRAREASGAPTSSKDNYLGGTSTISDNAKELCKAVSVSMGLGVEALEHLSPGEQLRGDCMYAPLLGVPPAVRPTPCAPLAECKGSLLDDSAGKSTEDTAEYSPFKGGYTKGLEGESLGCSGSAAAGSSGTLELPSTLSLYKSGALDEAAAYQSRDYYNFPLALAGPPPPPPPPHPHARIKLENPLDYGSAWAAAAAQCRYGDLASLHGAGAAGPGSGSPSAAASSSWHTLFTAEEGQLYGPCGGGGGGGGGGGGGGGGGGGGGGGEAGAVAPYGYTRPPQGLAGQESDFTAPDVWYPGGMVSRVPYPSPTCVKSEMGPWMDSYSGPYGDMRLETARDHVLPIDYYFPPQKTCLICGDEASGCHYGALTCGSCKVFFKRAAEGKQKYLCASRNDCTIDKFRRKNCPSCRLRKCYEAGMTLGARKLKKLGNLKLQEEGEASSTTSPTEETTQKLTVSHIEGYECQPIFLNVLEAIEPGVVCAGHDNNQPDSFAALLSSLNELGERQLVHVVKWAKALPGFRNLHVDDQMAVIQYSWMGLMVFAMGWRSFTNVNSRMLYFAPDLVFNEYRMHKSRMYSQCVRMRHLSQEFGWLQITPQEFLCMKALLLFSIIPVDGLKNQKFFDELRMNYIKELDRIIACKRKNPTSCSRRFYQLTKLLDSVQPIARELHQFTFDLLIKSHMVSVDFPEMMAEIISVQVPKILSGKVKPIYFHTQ
Assay: [3H]DHT competitive radioligand binding; also BLI and FP on AR LBD, and SPR (KD […]) and BLI on AR AF1 ([…] aa)

Cc1noc(C)c1COc1ccc(C(=O)Nc2nc(-c3cccs3)cs2)cc1 [Z15, 4-[(3,5-Dimethyl-4-isoxazolyl)methoxy]-N-4-[(2-thienyl)-2-thiazole]-benzamide]
IC50: 63.3 nM
